Results reported in ChEMBL document CHEMBL1201862, “PubChem BioAssay data set” (2004).
Calls of active or inactive are those of the source.

Legend:
[1] = molecular target: Glucose-6-phosphate 1-dehydrogenase (Homo sapiens, UniProt P11413); assay: inhibition of Homo sapiens G6PD, dose series – biochemical, fluorescence, selectivity assay for P. falciparum G6PD inhibitor project, dose response (AID 504792); type: functional
Coagulation factor XII = molecular target: T1, Coagulation factor XII (Homo sapiens, UniProt P00748); type: functional;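 further: activated factor XIIa alpha cleaving a fluorogenic AMC peptide substrate; inhibitor potency from loss of enzyme activity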
T1 sequence (P00748 whole entry): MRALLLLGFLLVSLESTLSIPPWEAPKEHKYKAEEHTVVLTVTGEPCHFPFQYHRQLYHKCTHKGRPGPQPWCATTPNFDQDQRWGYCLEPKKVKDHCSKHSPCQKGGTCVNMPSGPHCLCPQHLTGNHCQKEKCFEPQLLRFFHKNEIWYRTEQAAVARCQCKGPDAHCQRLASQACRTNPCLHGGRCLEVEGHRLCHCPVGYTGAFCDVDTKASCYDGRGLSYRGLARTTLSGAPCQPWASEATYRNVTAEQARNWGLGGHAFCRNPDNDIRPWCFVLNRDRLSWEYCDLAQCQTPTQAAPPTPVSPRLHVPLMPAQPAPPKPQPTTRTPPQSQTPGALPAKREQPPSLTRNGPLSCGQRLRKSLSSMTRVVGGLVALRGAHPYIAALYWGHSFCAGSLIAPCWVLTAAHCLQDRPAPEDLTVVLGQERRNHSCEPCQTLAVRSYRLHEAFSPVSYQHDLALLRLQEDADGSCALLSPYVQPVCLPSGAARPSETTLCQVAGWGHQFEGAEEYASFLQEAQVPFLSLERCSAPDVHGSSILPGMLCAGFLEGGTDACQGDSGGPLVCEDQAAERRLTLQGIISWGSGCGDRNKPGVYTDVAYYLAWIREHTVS

[2] = molecular target: T2, Type-1 angiotensin II receptor (Homo sapiens, UniProt P30556); assay: antagonism of angiotensin II type 1 receptor – cell-based, uHTS hits, selectivity assay for APJ receptor antagonist project, dose response (AID 463214); type: functional;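 further: antagonist potency against angiotensin II stimulated AT1 response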
T2 sequence (P30556 whole entry): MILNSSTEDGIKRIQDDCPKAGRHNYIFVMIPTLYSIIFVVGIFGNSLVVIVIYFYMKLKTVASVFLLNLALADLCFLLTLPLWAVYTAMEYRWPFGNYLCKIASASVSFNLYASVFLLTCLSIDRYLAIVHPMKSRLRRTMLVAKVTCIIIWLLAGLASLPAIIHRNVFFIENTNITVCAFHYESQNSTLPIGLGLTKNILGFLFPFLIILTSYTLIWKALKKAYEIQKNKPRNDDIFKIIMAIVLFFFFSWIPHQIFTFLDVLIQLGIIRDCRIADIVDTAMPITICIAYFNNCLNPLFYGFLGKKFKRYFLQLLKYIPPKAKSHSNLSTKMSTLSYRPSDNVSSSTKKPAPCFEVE

Beta-galactosidase = Beta-galactosidase (Escherichia coli, UniProt Q8VNN2); assay: PubChem AID 485352; type: functional
Phospholipase A2 = Phospholipase A2 (Homo sapiens, UniProt P04054); type: functional;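 further: confirmatory dose-response counterscreen on phospholipase A2, testing hits that came from an ultra-high-throughput screen for ATG4B inhibitors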
Cysteine protease ATG4B = molecular target: T3, Cysteine protease ATG4B (Homo sapiens, UniProt Q9Y4P1); type: functional;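 further: Fluorescence-based dose-response confirmation assay measuring inhibition of ATG4B activity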
T3 sequence (Q9Y4P1 whole entry): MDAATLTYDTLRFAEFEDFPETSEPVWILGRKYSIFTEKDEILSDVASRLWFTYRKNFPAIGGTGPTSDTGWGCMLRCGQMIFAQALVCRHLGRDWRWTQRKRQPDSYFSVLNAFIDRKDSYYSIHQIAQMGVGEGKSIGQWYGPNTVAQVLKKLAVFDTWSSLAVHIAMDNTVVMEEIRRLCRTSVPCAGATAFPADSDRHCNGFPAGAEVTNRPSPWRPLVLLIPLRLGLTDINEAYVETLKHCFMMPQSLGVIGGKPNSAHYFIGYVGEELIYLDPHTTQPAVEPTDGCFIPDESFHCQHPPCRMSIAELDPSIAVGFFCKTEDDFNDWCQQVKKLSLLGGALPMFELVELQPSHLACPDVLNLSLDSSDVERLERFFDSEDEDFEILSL

cells [3] = type: functional, cell-based
cells [4] = type: functional, cell-based; remark: listed apart in the source
[5] = loss of viability in HepG2 cells – cell-based, CellTiter-Glo, cherry-picked, cytotoxicity control for Shn3 inhibitor project, dose response (AID 624134); type: functional
[6] = reduction of Shn3 3'UTR-driven luciferase in osteoblasts – cell-based, Clone20 osteoblasts, firefly luciferase, cherry-picked, dose response (AID 624132); type: functional;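 further: firefly luciferase luminescence from reporter carrying the Shn3 3'UTR in osteoblasts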
Protein Wnt-3a = Protein Wnt-3a (Mus musculus, UniProt P27467); assay: antagonism of Wnt3a pathway luciferase reporter – Wnt-LIGHT cells, luminescence, selectivity assay for Gli-SUFU antagonist project, dose response (AID 651570); type: functional; conditions: read-out: IC50_Mean;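 further: Wnt-LIGHT reporter cells stimulated with conditioned medium from Wnt3a-producing cells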
[7] = non-specific 3'UTR reporter inhibition in Clone20-Shn3RL – cell-based, Renilla luciferase, cherry-picked, counter-screen for Shn3 inhibitor project, dose response (AID 624133); type: functional
[8] = HIV-1 AD8 envelope cell-cell fusion blockers – cherry-pick, dose response (AID 652062); type: functional, cell-based;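 further: luciferase signal from cell-cell fusion driven by HIV-1 clade B AD8 Env; potency is for inhibitors of fusion seen as a drop in luminescence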
INS1 = assay: INS-1E survival protection against cytokine death – cell-based, luminescence, retest, dose response (AID 449756); type: functional; conditions: Rattus norvegicus;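 further: cell death triggered by IL-1 beta plus TNF-alpha plus IFN-gamma mixture; protective hits raise ATP signal compared with cytokine alone wells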
Genome polyprotein = Genome polyprotein (dengue virus type 2, UniProt P29990); assay: flavivirus cap methylation enzyme inhibition – biochemical, confirmation dose response, primary screen (AID 588689); type: functional
[9] = molecular target: T4, Rac GTPase-activating protein 1 (Homo sapiens, UniProt Q9H0H5); assay: blockers of MgcRacGAP-driven Rac1 GTP hydrolysis – biochemical, ADP Hunter fluorescence, primary and confirmatory, confirmation (AID 624330); type: functional
T4 sequence (Q9H0H5 whole entry): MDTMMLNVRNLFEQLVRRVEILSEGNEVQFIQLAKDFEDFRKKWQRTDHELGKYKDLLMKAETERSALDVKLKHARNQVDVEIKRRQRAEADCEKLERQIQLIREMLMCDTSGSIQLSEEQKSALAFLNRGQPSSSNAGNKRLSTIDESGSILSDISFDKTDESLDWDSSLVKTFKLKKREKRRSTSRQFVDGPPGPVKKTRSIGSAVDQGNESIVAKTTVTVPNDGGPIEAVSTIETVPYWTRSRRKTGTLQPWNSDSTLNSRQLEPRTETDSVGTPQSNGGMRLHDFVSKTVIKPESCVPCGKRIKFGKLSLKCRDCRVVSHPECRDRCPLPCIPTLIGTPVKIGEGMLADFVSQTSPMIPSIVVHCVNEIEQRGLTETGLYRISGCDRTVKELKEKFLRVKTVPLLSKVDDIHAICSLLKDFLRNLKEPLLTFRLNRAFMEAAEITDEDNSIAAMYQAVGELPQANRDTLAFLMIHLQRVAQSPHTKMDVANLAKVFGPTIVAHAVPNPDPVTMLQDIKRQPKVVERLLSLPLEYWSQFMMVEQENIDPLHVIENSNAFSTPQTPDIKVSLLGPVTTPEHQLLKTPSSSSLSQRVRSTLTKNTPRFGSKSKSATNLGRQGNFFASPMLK

[10] = molecular target: NAD-dependent protein deacylase sirtuin-5, mitochondrial (Homo sapiens, UniProt Q9NXA8); assay: sirtuin-5 deacylation blockers, concentration series – biochemical, fluorescence imaging, cherry-pick, set 5, dose response (AID 720591);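 further: desuccinylation of succinyl peptide AMC substrate read as fluorescence after trypsin release; potency of inhibitors that lower fluorescence and may act on trypsin instead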
[11] = molecular target: G-protein coupled receptor 55 (Homo sapiens, UniProt Q9Y2T6); assay: inhibition of LPI-stimulated GPR55 beta-arrestin translocation – imaging, U2OS, beta-arrestin-GFP, LPI agonist, primary screen (AID 2013); type: functional;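 further: antagonist potency measured as reduced agonist-driven arrestin aggregation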
Chain of G-protein coupled receptor 55 (Q9Y2T6 whole entry): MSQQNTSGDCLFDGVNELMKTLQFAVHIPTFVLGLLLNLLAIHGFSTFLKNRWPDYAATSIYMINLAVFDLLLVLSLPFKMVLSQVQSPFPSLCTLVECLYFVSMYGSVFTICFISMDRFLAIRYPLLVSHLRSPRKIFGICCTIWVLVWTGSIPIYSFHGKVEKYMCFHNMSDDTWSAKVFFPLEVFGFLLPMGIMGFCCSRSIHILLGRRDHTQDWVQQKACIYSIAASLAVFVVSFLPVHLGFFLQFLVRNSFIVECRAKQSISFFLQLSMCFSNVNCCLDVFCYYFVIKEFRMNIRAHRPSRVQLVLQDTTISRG

Chain of NAD-dependent protein deacylase sirtuin-5, mitochondrial (Q9NXA8 whole entry): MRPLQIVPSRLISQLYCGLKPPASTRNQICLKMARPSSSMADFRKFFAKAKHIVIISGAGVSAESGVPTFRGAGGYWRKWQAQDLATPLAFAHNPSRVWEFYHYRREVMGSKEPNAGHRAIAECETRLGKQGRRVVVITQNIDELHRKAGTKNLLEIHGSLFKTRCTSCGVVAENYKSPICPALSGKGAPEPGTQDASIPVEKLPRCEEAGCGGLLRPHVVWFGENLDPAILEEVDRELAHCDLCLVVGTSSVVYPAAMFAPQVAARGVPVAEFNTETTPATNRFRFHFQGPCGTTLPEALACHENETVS
Chain of Protein Wnt-3a (P27467 whole entry): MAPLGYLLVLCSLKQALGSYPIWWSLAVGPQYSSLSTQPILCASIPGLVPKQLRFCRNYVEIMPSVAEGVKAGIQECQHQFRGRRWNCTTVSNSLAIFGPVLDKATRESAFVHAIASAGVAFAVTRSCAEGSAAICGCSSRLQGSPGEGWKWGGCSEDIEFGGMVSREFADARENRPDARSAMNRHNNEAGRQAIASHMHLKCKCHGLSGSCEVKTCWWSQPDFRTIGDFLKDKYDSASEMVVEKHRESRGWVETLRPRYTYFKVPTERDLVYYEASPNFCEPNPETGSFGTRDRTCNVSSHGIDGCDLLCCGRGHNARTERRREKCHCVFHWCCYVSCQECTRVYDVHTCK
Chain of Beta-galactosidase (Q8VNN2 whole entry): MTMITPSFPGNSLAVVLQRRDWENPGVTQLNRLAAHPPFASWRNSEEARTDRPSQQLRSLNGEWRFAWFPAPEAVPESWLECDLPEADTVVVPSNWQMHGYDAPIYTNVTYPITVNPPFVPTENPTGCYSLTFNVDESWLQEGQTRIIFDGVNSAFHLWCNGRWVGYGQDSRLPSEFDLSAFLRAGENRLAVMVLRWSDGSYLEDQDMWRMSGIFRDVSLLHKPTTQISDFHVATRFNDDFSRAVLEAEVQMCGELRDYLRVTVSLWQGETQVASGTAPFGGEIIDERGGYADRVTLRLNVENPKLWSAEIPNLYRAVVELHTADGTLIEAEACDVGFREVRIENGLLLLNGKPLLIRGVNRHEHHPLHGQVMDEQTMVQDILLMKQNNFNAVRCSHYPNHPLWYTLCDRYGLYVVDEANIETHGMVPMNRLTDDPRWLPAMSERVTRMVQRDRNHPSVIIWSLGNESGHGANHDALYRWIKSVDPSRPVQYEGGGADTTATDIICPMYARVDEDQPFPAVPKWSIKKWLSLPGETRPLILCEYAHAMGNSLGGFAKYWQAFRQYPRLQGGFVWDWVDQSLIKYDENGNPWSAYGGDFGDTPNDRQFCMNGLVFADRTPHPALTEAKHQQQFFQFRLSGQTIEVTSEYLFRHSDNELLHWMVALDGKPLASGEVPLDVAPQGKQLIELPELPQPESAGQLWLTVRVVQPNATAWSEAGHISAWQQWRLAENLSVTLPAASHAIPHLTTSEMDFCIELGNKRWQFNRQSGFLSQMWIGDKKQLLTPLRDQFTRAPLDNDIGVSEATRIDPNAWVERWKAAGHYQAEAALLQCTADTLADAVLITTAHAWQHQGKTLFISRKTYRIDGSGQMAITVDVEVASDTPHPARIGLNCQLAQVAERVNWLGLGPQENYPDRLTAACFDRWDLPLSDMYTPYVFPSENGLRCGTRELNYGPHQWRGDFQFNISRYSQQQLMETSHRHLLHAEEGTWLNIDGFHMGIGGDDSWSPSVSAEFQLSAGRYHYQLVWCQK
Chain of Phospholipase A2 (P04054 whole entry): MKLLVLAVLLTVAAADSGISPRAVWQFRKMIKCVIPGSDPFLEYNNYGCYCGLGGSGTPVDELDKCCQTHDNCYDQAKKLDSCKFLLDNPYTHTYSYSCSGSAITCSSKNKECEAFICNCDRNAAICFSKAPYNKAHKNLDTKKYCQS
Chain of Glucose-6-phosphate 1-dehydrogenase (P11413 whole entry): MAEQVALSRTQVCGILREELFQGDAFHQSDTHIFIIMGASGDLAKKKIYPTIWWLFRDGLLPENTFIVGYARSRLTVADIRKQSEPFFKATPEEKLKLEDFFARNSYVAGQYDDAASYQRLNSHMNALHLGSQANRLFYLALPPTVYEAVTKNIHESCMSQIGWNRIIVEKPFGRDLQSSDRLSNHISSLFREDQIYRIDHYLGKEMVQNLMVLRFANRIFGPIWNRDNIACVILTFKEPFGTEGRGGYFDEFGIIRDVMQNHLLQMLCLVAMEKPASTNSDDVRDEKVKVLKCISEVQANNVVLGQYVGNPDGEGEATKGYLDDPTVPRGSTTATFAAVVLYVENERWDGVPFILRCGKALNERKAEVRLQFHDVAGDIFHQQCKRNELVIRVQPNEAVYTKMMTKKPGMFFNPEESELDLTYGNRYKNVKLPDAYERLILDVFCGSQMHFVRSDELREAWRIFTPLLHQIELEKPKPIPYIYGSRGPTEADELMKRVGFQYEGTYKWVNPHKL
Chain of Genome polyprotein (P29990 2492-3391 limits assumed): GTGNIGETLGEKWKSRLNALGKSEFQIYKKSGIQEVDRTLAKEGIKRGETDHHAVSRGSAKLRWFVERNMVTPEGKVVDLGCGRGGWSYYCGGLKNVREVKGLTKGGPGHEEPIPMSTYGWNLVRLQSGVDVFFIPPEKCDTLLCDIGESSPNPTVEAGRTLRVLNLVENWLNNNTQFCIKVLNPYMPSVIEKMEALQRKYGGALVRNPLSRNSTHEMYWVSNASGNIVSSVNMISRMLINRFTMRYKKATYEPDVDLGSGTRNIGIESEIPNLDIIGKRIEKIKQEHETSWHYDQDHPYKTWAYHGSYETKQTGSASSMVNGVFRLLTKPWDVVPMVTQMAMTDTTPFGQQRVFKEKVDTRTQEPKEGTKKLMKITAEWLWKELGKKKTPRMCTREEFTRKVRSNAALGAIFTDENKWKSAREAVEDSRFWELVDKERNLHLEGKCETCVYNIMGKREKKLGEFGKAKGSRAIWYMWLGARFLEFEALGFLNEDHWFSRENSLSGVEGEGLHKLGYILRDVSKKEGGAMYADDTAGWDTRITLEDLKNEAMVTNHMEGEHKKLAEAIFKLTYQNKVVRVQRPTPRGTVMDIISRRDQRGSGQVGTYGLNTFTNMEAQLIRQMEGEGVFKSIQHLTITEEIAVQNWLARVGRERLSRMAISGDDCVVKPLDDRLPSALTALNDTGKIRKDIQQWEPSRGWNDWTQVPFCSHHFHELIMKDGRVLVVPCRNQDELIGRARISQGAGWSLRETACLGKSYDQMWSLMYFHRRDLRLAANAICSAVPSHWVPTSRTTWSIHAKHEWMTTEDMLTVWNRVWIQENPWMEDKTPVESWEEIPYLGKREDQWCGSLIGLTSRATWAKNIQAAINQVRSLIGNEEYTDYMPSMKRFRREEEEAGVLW

Which IC50 [1] does the source give for `Cc1ccccc1-n1c(-c2ccc3ccccc3n2)n[nH]c1=S` here?
The IC50 was > 80 µM (inactive).

With `CN(C)/C=C/c1c(C#N)c(=O)ncn1Cc1ccccc1` as the molecule, how does the IC50 (Coagulation factor XII) read?
The IC50 was > 50 µM (inactive).

For `CC1=NN(C(N)=S)C(=O)C1N=Nc1ccc([N+](=O)[O-])cc1` (centres undefined), which IC50 [2] is on record?
Its IC50 is 35.3 µM (not active).

What about the EC50 (Beta-galactosidase) of the same molecule?
Its EC50 is > 40 µM (inactive).

What does the source list for `FC(F)(F)Oc1ccc(NC(S)=NCc2ccccc2)cc1`?
IC50 (Phospholipase A2): 12.2 µM (active); IC50 (Cysteine protease ATG4B): 25.4 µM (inactive)

Which results are given for `Oc1nc(Nc2ccccc2)nc(N2CCCC2)n1`?
IC50 (cells [3]): > 29.9 µM (inactive); EC50 (cells [4]): > 29.9 µM (inactive)

With `O=C(c1cccc(S(=O)(=O)N2CCN(c3ccccc3)CC2)c1)N1CCCC(C(F)(F)F)C1` (centres undefined) as the molecule, how does the AC50 [5] read?
The AC50 was 37.3 µM (active).

And the AC50 [6]?
Its AC50 is 2.68 µM (active).

What about the IC50 (Protein Wnt-3a) of the same molecule?
The IC50 was 41.8 µM (inactive).

What about the AC50 [7] of the same molecule?
Its AC50 is 0.475 µM (active).

And the AC50 [8]?
The AC50 was 6.01 µM (active).

With `O=C(O)c1ccc(/C=C2\SC(=S)N(Nc3ccccc3)C2=O)cc1` as the molecule, how does the AC50 (INS1) read?
Its AC50 is 3.85 µM (active).

And the IC50 (Coagulation factor XII)?
Its IC50 is > 50 µM (inactive).

What about the IC50 (Genome polyprotein) of the same molecule?
The IC50 was 58 µM (active).

Which IC50 [9] does the source give for `COc1ccccc1-c1c[nH]nc1-c1ccc(O)cc1O` here?
The IC50 was 42.4 µM (active).

What about the AC50 [10] of the same molecule?
The AC50 was 21.6 µM (active).

With `CN(C)c1ccnc(N(Cc2ccccc2)Cc2ccccc2)c1C#N` as the molecule, how does the IC50 [11] read?
Its IC50 is 0.509 µM (active).
